# Values joined by “and” are separate entries in the source; they are usually repeats but may differ in a detail not shown here. Equal entries are not always repeated.
# Legend:
# Rattus norvegicus [1] = conditions: oral
# Rattus norvegicus [2] = conditions: for LD50 / LC50: acute
# [3] = short-term, duration: 28 days, gavage, F, Sprague-Dawley, Blood Chemistry: Glu decrease, ChE increase, BUN increase + Absolute Organ Weight: Thyroid increase(trend) + Relative Organ Weight: Thyroid …
# [4] = short-term, duration: 28 days, gavage, M, Sprague-Dawley, Blood Chemistry: Glu decrease, ChE increase, BUN increase + Absolute Organ Weight: Thyroid increase(trend) + Relative Organ Weight: Thyroid …
# [5] = subchronic, gavage, M, Sprague-Dawley, Clinical Observation: Salivation + Urinalysis: Volume increase, Tubular epithelial cell + Blood Chemistry: PL increasegamma-GTP increase, TP…
# [6] = reproduction developmental, duration: 24 weeks, inhalation, generation: F0
# [7] = reproduction developmental, duration: 24 weeks, inhalation, generation: F1
# [8] = reproduction developmental, duration: 10 days, oral, gavage, F
# [9] = short-term, duration: 12 days, inhalation, F, Fischer 344
# [10] = short-term, duration: 12 days, inhalation, M, Fischer 344
# [11] = short-term, duration: 14 days, oral, gavage, F, Crj:CD(SD)
# [12] = short-term, duration: 14 days, oral, gavage, M, Crj:CD(SD)
# [13] = subchronic, duration: 13 weeks, inhalation, F, Fischer 344
# [14] = subchronic, duration: 13 weeks, inhalation, M, Fischer 344
# [15] = subchronic, duration: 90 days, oral, diet
smiles,measurement,setting,value
"CC(C)OC1(OC(C)C)CCCCC1 [1,1-Diisopropoxycyclohexane]",NOEL,"Rattus norvegicus [1]; subchronic, gavage, M, Sprague-Dawley, Clinical Observation: Salivation + Food Consumption: increase + Blood Chemistry: T-Cho increase + Absolute Organ Weight: Liver increase, …",40 mg/kg-day
CN(c1nccc(=O)[nH]1)C1CCN(c2nc3ccccc3n2Cc2ccc(F)cc2)CC1 [Mizolastine],NOAEL,"Rattus norvegicus [1]; chronic, duration: 182 days, gavage, M/F, Sprague-Dawley, Clinical Observation: Salivation + Urinalysis: Volume increase + Blood Chemistry: IP increase + Absolute Organ Weight: Liver increase, …",5 mg/kg-day
O=C1c2ccccc2C(=O)N1SC(F)(Cl)Cl [Fluorofolpet],NOEL,"Rattus norvegicus [1]; short-term, duration: 28 days, gavage, M/F, Wistar, Deaths + Clinical Observation: Nasal noise Diarrhea + Body Weight Changes: Weight gain decrease + Food Consumption: decrease + Water …",< 20 mg/kg-day
"Cc1ccc(Nc2ccc(C)cc2)cc1 [4,4'-Dimethyldiphenylamine]",NOEL,"Rattus norvegicus [1]; short-term, duration: 28 days, gavage, M/F, Clinical Observation: Salivation + Blood Chemistry: GOT increase, GPT increase, gamma-GTP increase, T-CHO increase, TG increase, IP …",30 mg/kg-day
O[Si](O)(C1CCCC1)C1CCCC1 [Dicyclopentylsilanediol],NOEL,"Rattus norvegicus [1]; subchronic, duration: 90 days, gavage, M, Sprague-Dawley, Clinical Observation: Ataxic gait SalivationDecreased locomotor activity + Blood Chemistry: TG decrease + Relative Organ Weight: Liver …",40 mg/kg-day
"Nc1ccc(Nc2ccccc2)cc1 [N-Phenyl-1,4-benzenediamine]",NOAEL,"Rattus norvegicus [1]; subchronic, duration: 90 days, diet, M, Wistar, Body Weight Changes: Body weight gain decrease + Food Consumption: decrease + Hematology: RBC decrease, HGB decrease, HCT decrease, MCV …",96 mg/kg-day
CC(I)C1OCC(CO)O1 (stereo not given) [Iodinated glycerol],NOEL,"Rattus norvegicus [1]; subchronic, duration: 13 weeks, gavage, M/F, Fischer 344, Deaths + Body Weight Changes: decrease + Histopathology: Kidney-Tubular cell regeneration Kidney-Calcification",250 mg/kg-day
CCCCCCC(=O)OCCOCCOCCOCCOC(=O)CCCCCC [Tetraethylene glycol diheptanoate],LD50,"Rattus norvegicus [2]; oral, gavage, ChR:CD",> 25000 mg/kg
same,LD50,"Rattus norvegicus [2]; oral, gavage, ChRCD",> 25000 mg/kg
same,LD50,"Rattus norvegicus [2]; oral, gavage, Crl:CD(SD)",> 24500 mg/kg
same,LD50,"Rattus norvegicus [2]; oral, gavage, Wistar",> 2000 mg/kg
same,LOAEL,"Rattus norvegicus [2]; short-term, duration: 4 weeks, inhalation, Wistar",1.1 mg/L
same,NOAEL,"Rattus norvegicus [2]; short-term, duration: 28 days, oral, gavage, Wistar",1000 mg/kg-day
CSCCC=O [3-(Methylthio)propanal],NOAEL,"Rattus norvegicus [1]; short-term, duration: 28 days, gavage, M/F, Wistar, Body Weight Changes: Mean body weight decrease, Weight gain decrease + Hematology: RBC decrease, HGB decrease + Blood Chemistry: T-Bil …",104 mg/kg-day
"OCCCO [1,3-Propanediol]",LD50,"Rattus norvegicus [2]; oral, gavage, Wistar",15.8 mg/kg
C1C2CC3CC1CC(C2)C3 [Adamantane],LOEL,Rattus norvegicus [1]; [3],1000 mg/kg-day
same,NOEL,Rattus norvegicus [1]; [3],200 mg/kg-day
same,LOEL,Rattus norvegicus [1]; [4],40 mg/kg-day
same,NOEL,Rattus norvegicus [1]; [4],< 40 mg/kg-day
CCCCCCCC1CCCC1=O (stereo not given) [2-Heptylcyclopentanone],NOAEL,Rattus norvegicus [1]; [5],200 mg/kg-day
same,NOEL,Rattus norvegicus [1]; [5],50 mg/kg-day
CC(C)N.CCCCCCCCCC(CC)c1ccc(S(=O)(=O)O)cc1 (stereo not given) [Isopropylammonium dodecylbenzenesulfonate],LD50,Rattus norvegicus [2]; oral,1840 mg/kg
same,LD50,"Rattus norvegicus [2]; oral, gavage, Sprague-Dawley",1300 mg/kg
"C1COCO1 [1,3-Dioxolane]",LC50,"Rattus norvegicus [2]; inhalation, Crl:CD1",68.4 µg/mL
same,LD50,"Rattus norvegicus [2]; oral, gavage, Sprague-Dawley",5200 mg/kg
same,LOAEL,"Rattus norvegicus [2]; developmental, duration: 10 days, oral, gavage",1000 mg/kg-day
same,LOAEL,Rattus norvegicus [2]; [6],> 379 mg/m3
same,NOAEL,Rattus norvegicus [2]; [6],379 mg/m3
same,LOAEL,Rattus norvegicus [2]; [7],> 379 mg/m3
same,NOAEL,Rattus norvegicus [2]; [7],379 mg/m3
same,LOAEL,Rattus norvegicus [2]; [8],500 mg/kg-day
same,NOAEL,Rattus norvegicus [2]; [8],250 mg/kg-day
same,LOAEL,Rattus norvegicus [2]; [9],7030 mg/m3
same,NOAEL,Rattus norvegicus [2]; [9],1560 mg/m3
same,LOAEL,Rattus norvegicus [2]; [10],7030 mg/m3
same,NOAEL,Rattus norvegicus [2]; [10],1560 mg/m3
same,LOAEL,Rattus norvegicus [2]; [11],250 mg/kg-day
same,NOAEL,Rattus norvegicus [2]; [11],75 mg/kg-day
same,LOAEL,Rattus norvegicus [2]; [12],250 mg/kg-day
same,NOAEL,Rattus norvegicus [2]; [12],75 mg/kg-day
same,LOAEL,Rattus norvegicus [2]; [13],3030 mg/m3
same,NOAEL,Rattus norvegicus [2]; [13],903 mg/m3
same,LOAEL,Rattus norvegicus [2]; [14],9120 mg/m3
same,NOAEL,Rattus norvegicus [2]; [14],3030 mg/m3
CC(C)(C)c1cc(CCC(=O)NNC(=O)CCc2cc(C(C)(C)C)c(O)c(C(C)(C)C)c2)cc(C(C)(C)C)c1O,LD50,Rattus norvegicus [2]; oral,> 7000 mg/kg
same,NOAEL,"Rattus norvegicus [2]; short-term, duration: 28 days, oral, diet",> 10000 ppm
same,NOAEL,"Rattus norvegicus [2]; subchronic, duration: 3 months, oral, diet",38.4 mg/kg-day
"CC(=O)O.CC(C)CCCCCCCOCCCN [1-Propanamine, 3-(isodecyloxy)-, acetate]",LD50,"Rattus norvegicus [2]; oral, gavage, Sprague-Dawley",1030 mg/kg and 1460 mg/kg and 1220 mg/kg
"Cc1ccc(C)c(O)c1C [2,3,6-Trimethylphenol]",LD50,"Rattus norvegicus [2]; oral, gavage",> 2000 mg/kg
Clc1nc(Cl)c(Cl)c(Cl)c1Cl [Pentachloropyridine],LD50,"Rattus norvegicus [2]; oral, gavage, Fischer 344",435 mg/kg
same,NOAEL,"Rattus norvegicus [2]; reproduction developmental, duration: 15 days, oral, gavage, F, Sprague-Dawley",50 mg/kg-day
same,LOAEL,Rattus norvegicus [2]; [15],30 mg/kg-day
same,NOAEL,Rattus norvegicus [2]; [15],10 mg/kg-day
CCC(C)(N)C#N (stereo not given) [2-Amino-2-methyl-butyronitrile],LC50,"Rattus norvegicus [2]; inhalation, Crl:CD(SD) BR",430 mg/m3 and 446 mg/m3 and 417 mg/m3
same,LD50,"Rattus norvegicus [2]; oral, gavage, Sprague-Dawley",74 mg/kg

# From EPA's ToxValDB 9.5
